According to ChEMBL document CHEMBL6153155, “Novel Cyclohexyl Amido Acid Antagonists of Lysophosphatidic Acid Type 1 Receptor for the Treatment of Pulmonary Fibrosis” (ACS Med Chem Lett, 2025):
≈ marks a conversion by molar mass, not a printed value.

What was measured:
Mus musculus = assay: Inhibition of LPA-stimulated histamine release in male CD1 mouse plasma assessed as effective dose administered as po dose pretreated for 30 mins followed by LPA addition measured after 2 mins by enzyme immunoassay; assay type: functional; settings: 32 min
[1] = target: T1, Solute carrier organic anion transporter family member 1B3 (Homo sapiens, UniProt Q9NPD5); assay: Inhibition of human OATP1B3 in HEK293 cells; assay type: cell-based
T1 sequence (Q9NPD5 whole entry): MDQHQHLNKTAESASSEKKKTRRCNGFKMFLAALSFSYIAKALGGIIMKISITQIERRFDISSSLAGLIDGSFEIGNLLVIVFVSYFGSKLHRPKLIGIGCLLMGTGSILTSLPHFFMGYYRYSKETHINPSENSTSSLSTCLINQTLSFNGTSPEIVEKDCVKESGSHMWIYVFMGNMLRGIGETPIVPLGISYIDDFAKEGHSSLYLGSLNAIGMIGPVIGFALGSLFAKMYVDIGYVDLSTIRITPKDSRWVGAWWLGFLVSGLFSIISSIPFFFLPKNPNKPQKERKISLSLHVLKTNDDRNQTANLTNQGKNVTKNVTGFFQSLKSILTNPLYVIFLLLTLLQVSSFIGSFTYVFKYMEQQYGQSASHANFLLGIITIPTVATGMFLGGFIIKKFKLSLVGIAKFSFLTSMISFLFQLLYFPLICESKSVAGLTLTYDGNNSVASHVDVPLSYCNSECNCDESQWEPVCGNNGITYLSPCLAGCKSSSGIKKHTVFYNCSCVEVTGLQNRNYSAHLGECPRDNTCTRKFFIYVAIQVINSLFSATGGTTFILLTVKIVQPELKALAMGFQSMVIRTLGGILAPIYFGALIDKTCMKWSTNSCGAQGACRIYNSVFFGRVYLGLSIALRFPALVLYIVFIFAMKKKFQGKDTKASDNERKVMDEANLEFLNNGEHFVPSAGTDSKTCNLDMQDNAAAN

[2] = Tlast in female C57BL/6J mouse lung at 30 mg/kg, po measured after 24 hrs by UPLC-MS/MS analysis; assay type: ADME, organism-based; settings: in vivo
[3] = Toxicity in cynomolgus monkey assessed as fasciculation at 210 mg/kg/day, po bid measured after 4 days; assay type: organism-based, Macaca fascicularis; settings: in vivo, 96 h, time 4 day
[4] = target: Phosphatidylcholine translocator ABCB4 (Homo sapiens, UniProt P21439); assay: Inhibition of MDR3 in human hepatocytes in the presence of TCA incubated for 3 hrs by LC-MS/MS; assay type: cell-based, Hepatocyte
Chain of Phosphatidylcholine translocator ABCB4 (P21439 whole entry): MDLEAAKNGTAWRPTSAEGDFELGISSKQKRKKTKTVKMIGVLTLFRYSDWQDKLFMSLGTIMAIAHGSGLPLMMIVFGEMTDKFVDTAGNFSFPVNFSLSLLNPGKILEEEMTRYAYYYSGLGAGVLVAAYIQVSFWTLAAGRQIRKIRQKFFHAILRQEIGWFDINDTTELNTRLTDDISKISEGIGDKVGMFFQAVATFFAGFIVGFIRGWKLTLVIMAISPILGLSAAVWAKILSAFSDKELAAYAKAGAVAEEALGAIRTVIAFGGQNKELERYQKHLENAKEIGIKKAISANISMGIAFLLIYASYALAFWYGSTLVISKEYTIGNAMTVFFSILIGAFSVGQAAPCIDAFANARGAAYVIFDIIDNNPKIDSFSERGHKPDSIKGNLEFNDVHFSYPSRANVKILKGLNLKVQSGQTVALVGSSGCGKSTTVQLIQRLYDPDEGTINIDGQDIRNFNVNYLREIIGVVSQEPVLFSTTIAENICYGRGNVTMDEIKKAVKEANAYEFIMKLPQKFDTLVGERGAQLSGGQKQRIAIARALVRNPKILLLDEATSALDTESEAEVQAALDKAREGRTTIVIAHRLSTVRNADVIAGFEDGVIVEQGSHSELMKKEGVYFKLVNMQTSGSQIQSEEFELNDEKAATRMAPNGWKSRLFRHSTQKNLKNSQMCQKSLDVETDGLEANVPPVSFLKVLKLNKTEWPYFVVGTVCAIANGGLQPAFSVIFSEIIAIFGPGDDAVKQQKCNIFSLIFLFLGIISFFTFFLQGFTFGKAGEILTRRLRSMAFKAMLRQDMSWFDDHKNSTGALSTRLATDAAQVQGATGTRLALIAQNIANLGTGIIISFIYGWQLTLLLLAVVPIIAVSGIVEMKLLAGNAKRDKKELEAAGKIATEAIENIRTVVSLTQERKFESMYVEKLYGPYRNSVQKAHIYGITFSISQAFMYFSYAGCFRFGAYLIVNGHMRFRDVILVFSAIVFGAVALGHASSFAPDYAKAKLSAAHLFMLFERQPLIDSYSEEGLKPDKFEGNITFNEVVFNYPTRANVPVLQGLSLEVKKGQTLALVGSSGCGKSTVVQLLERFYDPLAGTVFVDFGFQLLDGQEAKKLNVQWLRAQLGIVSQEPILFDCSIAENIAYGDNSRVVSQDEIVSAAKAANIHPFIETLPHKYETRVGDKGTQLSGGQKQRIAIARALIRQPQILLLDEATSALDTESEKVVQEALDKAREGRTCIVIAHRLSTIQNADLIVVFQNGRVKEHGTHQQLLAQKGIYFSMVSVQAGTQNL

[5] = Toxicity in cynomolgus monkey assessed as abnormal vocalization at 210 mg/kg/day, po bid measured after 4 days; assay type: organism-based, Macaca fascicularis; settings: in vivo, 96 h, time 4 day
[6] = Toxicity in cynomolgus monkey assessed as abnormally cold to touch at 210 mg/kg/day, po bid measured after 4 days; assay type: organism-based, Macaca fascicularis; settings: in vivo, 96 h, time 4 day
[7] = Clearance in female C57BL/6J mouse at 2 mg/kg, iv measured after 24 hrs by UPLC-MS/MS analysis; assay type: ADME, organism-based; settings: in vivo
[8] = Tlast in female C57BL/6J mouse plasma at 30 mg/kg, po measured after 24 hrs by UPLC-MS/MS analysis; assay type: ADME, organism-based; settings: in vivo
[9] = Total Cmax in female C57BL/6J mouse plasma at 30 mg/kg, po measured after 24 hrs by UPLC-MS/MS analysis; assay type: ADME, organism-based
BSEP = BSEP (Homo sapiens, UniProt O95342); assay: Inhibition of BSEP in cryopreserved sandwich-cultured human hepatocytes by measuring reduction in TCA biliary clearance using taurocholic acid as substrate at 50 uM relative to control; assay type: cell-based, Hepatocyte; settings: cryopreserved sandwich-cultured hepatocytes, probe taurocholic acid
Chain of BSEP (O95342 whole entry): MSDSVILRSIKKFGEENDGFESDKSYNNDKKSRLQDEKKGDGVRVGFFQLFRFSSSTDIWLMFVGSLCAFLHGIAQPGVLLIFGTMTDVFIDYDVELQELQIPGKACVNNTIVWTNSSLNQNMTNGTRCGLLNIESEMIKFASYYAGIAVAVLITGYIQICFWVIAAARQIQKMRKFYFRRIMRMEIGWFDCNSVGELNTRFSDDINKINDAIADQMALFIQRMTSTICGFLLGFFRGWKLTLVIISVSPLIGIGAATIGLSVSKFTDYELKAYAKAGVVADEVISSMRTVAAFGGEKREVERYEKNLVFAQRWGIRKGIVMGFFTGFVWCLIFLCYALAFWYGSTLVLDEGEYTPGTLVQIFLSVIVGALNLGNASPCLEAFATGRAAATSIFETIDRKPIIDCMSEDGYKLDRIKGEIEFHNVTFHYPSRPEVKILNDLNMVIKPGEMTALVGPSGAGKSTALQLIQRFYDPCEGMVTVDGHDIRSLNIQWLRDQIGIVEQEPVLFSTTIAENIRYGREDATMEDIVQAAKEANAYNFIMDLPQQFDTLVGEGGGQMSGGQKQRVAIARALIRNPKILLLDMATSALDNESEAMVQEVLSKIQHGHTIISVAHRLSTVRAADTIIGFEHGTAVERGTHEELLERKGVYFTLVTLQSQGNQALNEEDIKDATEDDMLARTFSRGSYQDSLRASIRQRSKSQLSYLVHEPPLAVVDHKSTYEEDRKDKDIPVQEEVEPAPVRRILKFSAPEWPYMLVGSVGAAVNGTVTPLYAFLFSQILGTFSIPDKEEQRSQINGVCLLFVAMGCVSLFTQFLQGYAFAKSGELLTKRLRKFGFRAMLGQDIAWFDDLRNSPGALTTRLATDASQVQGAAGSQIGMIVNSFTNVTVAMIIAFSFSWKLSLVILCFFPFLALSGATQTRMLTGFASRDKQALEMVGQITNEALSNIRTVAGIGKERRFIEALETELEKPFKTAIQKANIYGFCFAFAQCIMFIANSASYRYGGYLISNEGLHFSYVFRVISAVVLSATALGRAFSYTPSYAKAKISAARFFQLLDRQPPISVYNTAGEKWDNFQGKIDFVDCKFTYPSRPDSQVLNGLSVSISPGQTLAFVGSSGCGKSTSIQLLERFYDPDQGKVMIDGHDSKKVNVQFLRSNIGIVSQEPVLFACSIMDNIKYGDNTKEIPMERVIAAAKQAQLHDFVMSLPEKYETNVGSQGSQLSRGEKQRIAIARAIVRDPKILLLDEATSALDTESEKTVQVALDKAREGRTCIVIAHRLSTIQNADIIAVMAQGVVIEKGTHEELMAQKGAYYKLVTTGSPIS

[10] = target: T2, Solute carrier organic anion transporter family member 1B1 (Homo sapiens, UniProt Q9Y6L6); assay: Inhibition of human OATP1B1 in HEK293 cells; assay type: cell-based
T2 sequence (Q9Y6L6 whole entry): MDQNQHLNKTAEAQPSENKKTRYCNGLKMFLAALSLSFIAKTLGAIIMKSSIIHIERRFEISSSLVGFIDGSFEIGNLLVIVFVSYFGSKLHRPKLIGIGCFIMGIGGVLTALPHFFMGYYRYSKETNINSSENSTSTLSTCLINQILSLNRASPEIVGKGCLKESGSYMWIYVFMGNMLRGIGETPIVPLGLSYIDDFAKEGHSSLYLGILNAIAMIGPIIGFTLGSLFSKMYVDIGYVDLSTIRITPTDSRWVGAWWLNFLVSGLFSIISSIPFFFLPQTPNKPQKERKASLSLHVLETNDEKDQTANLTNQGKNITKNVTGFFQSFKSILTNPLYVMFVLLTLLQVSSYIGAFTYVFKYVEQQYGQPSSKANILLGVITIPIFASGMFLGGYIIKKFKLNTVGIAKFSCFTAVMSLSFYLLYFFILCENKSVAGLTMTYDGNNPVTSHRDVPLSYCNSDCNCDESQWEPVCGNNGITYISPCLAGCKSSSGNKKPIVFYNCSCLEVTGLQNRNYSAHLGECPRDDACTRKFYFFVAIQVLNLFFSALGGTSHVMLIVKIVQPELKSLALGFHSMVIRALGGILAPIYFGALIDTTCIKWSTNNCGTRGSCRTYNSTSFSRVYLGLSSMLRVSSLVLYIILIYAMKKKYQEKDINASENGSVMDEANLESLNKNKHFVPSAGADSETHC

[11] = Metabolic stability in female C57BL/6J mouse liver microsomes assessed as intrinsic clearance measured per mg of protein at 0.5 uM measured upto 45 mins in presence of NADPH regenerating system by HPLC-MS/MS analysis; assay type: ADME, Microsome; settings: read-out: CLH
[12] = Unbound AUClast in female C57BL/6J mouse lung at 30 mg/kg, po measured after 24 hrs by UPLC-MS/MS analysis; assay type: ADME, organism-based; settings: in vivo
[13] = Toxicity in cynomolgus monkey assessed as drug tolerance at 12.5 to 100 mg/kg/day, po bid measured after 4 days; assay type: organism-based, Macaca fascicularis; settings: in vivo, 96 h, dose 12.5-100 mg/kg/day, time 4 day
[14] = Toxicity in cynomolgus monkey assessed as decreased activity at 210 mg/kg/day, po bid measured after 4 days; assay type: organism-based, Macaca fascicularis; settings: in vivo, 96 h, time 4 day
[15] = Toxicity in cynomolgus monkey assessed as piloerection at 210 mg/kg/day, po bid measured after 4 days; assay type: organism-based, Macaca fascicularis; settings: in vivo, 96 h, time 4 day
[16] = Toxicity in cynomolgus monkey assessed as partially closed eyelids at 210 mg/kg/day, po bid measured after 4 days; assay type: organism-based, Macaca fascicularis; settings: in vivo, 96 h, time 4 day
[17] = Toxicity in cynomolgus monkey assessed as appearance of sinusoidal leukocytosis in liver at 50 mg/kg, po bid by microscopic analysis; assay type: organism-based, Macaca fascicularis; settings: in vivo
[18] = Aqueous solubility of the compound at pH 7.4; assay type: physicochemical; settings: buffer

- IC50 [1]: 7.94 µM
- Tlast [2]: 24 h
- IC50 [4]: 251 µM
- clearance [7]: 1.73 mL/min/kg
- Tlast [8]: 24 h
- Cmax [9]: 99.4 µg/mL
- IC50 [10]: 5.01 µM
- microsomal CLint at 0.5 µM [11]: 4 µL/min/mg
- fAUClast [12]: 4624 h/ng/mL
- solubility [18]: 505 µM (≈ 273 µg/mL)
SMILES: Cc1nc(-c2onc(C)c2NC(=O)O[C@H](C)c2ccccc2Cl)ccc1NC(=O)[C@H]1CCCC[C@@H]1C(=O)O
- ED50 (Mus musculus): 0.04 mg/kg
- Activity [3]: Toxic
- Activity [5]: Toxic
- Activity [6]: Toxic
- inhibition at 50 µM (BSEP): 50%
- Activity [13]: Non-toxic
- Activity [14]: Toxic
- Activity [15]: Toxic
- Activity [16]: Toxic
- Activity [17]: Toxic
